Assay results published in PMC13198257, “An aerosolized dual-action autotaxin inhibitor-PPARγ agonist for the treatment of pulmonary fibrosis” (Cell Reports Medicine, 2026).

Test system: lung gene expression
Test: RNA sequencing of lung tissue (BLM/EL244 vs BLM)
Type: in vivo, mouse
Settings: BLM/EL244 vs BLM, lung tissue
Description: RNA quality was assessed using an Agilent TapeStation 4150 with the High Sensitivity […] ScreenTape (Agilent), according to the manufacturer’s protocols. For library preparation, the QuantSeq 3’mRNA-Seq Library Prep Kit (Lexogen) was used according to manufacturer’s instructions. Briefly, 500 ng of RNA from each sample was used for first-strand synthesis, followed by RNA template removal, and second-strand synthesis initiated by random primers. In-line barcodes were introduced at this step, and this was followed by magnetic bead-based purification. The resulting libraries were amplified for 15 cycles and re-purified, with quantity and quality assessed on a Qubit 4 Fluorometer with the Invitrogen Qubit dsDNA HS Assay and an Agilent Tapestation 4150 with the High Sensitivity D1000 assay kit, respectively. The quantified libraries were pooled equimolarly; 50ng of total library mix was used for Adapter Conversion PCR Amplification using the Universal Library Conversion Kit (App-A), Version: V1.0 (MGI Tech Co., Ltd.), according to the manufacturer’s instructions.
The quantity and quality of the purified adapter conversion PCR (AC-PCR) product were evaluated on a Qubit 4 Fluorometer with the Invitrogen Qubit dsDNA HS Assay and on an Agilent Tapestation 4150 with the High Sensitivity D1000 assay kit, respectively. This was followed by DNA denaturation, Single-Strand Circularisation, Enzymatic Digestion, Enzymatic Digestion Product Cleanup and Quality Control steps on 1 pmol of AC-PCR product, according to the Universal Library Conversion Kit (App-A) User Manual (Version: A3).
Finally, 60 fmol of ssCirDNA were used for DNB preparation and sequencing on a DNBSEQ-G400 platform at the BSRC Alexander Fleming Genomics Facility, using a G400 App-A FCS SE100 High-throughput Sequencing Set (MGI Tech Co., Ltd.), according to the manufacturer’s instructions.
Alignment of the FASTQ files was performed against the mouse genome build mm10 using a custom Bash script.[143] Read counting on the 3′ UTRs and differential expression analysis were conducted using the metaseqR2 bioconductor package.[144] Genes corresponding to the following biotypes were excluded: polymorphic_pseudogene, processed_transcript, pseudogene, IG_V_pseudogene, misc_RNA, IG_C_gene, IG_J_gene, IG_D_gene, IG_LV_gene, TR_V_gene, TR_V_pseudogene, TEC, and processed_pseudogene. Gene counts were normalized with DESEQ[145] through metaseqR2. Genes with more than 10 counts in at least 50% of the samples were kept for further processing. For differential expression analysis, the PANDORA algorithm[146] was used to estimate a meta p-value integrating the results from the DESEQ, DESEQ2,[147] edgeR,[148] limma,[149] NBPSeq,[150] and NOISeq[151] algorithms. All additional parameters were set to default values.
Pathway enrichment analysis was performed for the Gene Ontology Biological process (BP) and Molecular Function (MF) terms through GeneCodis 4.[152] The volcano plots, scatterplots, Venn diagrams, and dot plots were generated using the ggplot2 Bioconductor package.

## O=C1NC(=O)C(Cc2ccc(OCCC3CCN(C(=O)OCc4cc(Cl)cc(Cl)c4)CC3)cc2)S1 (stereo not shown) [EL244, 3,5-dichlorobenzyl 4-(2-(4-((2,4-dioxothiazolidin-5-yl)methyl)phenoxy)ethyl)piperidine-1-carboxylate]
  1810020O05Rik log2 nFC: 1.58
  1810020O05Rik nFC: 3.00
  2410004I01Rik log2 nFC: 1.80
  2410004I01Rik nFC: 3.47
  9130230L23Rik log2 nFC: 1.34
  9130230L23Rik nFC: 2.53
  9330159F19Rik log2 nFC: 1.78
  9330159F19Rik nFC: 3.43
  9530026P05Rik log2 nFC: 3.17
  9530026P05Rik nFC: 9.00
  A3galt2 log2 nFC: 2.32
  A3galt2 nFC: 5.00
  Acaa1b log2 nFC: 1.43
  Acaa1b nFC: 2.69
  Acot1 log2 nFC: 1.08
  Acot1 nFC: 2.11
  Acoxl log2 nFC: 1.23
  Acoxl nFC: 2.35
  Actc1 log2 nFC: 1.28
  Actc1 nFC: 2.42
  Adam3 log2 nFC: 1.67
  Adam3 nFC: 3.18
  Alas2 log2 nFC: 1.58
  Alas2 nFC: 2.99
  Ankrd63 log2 nFC: 1.34
  Ankrd63 nFC: 2.54
  Aqp9 log2 nFC: 1.66
  Aqp9 nFC: 3.15
  Arhgap28 log2 nFC: 1.14
  Arhgap28 nFC: 2.21
  Arl4d log2 nFC: 1.15
  Arl4d nFC: 2.23
  Arrdc2 log2 nFC: 1.24
  Arrdc2 nFC: 2.36
  Asgr1 log2 nFC: 1.80
  Asgr1 nFC: 3.49
  Baiap3 log2 nFC: 1.24
  Baiap3 nFC: 2.36
  Bbof1 log2 nFC: 1.11
  Bbof1 nFC: 2.15
  Bex2 log2 nFC: 1.46
  Bex2 nFC: 2.76
  Bpifa1 log2 nFC: 1.12
  Bpifa1 nFC: 2.18
  C130080G10Rik log2 nFC: 3.58
  C130080G10Rik nFC: 12.00
  Car3 log2 nFC: 1.57
  Car3 nFC: 2.96
  Casq2 log2 nFC: 2.36
  Casq2 nFC: 5.15
  Cbs log2 nFC: 1.38
  Cbs nFC: 2.61
  Ccdc81 log2 nFC: 1.15
  Ccdc81 nFC: 2.23
  Cd300lg log2 nFC: 1.18
  Cd300lg nFC: 2.27
  Chia1 log2 nFC: 1.16
  Chia1 nFC: 2.24
  Chrdl1 log2 nFC: 1.39
  Chrdl1 nFC: 2.62
  Cidec log2 nFC: 1.57
  Cidec nFC: 2.96
  Ckm log2 nFC: 2.32
  Ckm nFC: 5.00
  Ckmt2 log2 nFC: 2.73
  Ckmt2 nFC: 6.63
  Colq log2 nFC: 1.81
  Colq nFC: 3.52
  Cox6a2 log2 nFC: 1.42
  Cox6a2 nFC: 2.68
  Crtc2 log2 nFC: 1.47
  Crtc2 nFC: 2.76
  Csf3r log2 nFC: 1.69
  Csf3r nFC: 3.22
  Csrp3 log2 nFC: 2.07
  Csrp3 nFC: 4.19
  Cst8 log2 nFC: 1.41
  Cst8 nFC: 2.66
  Cxcl5 log2 nFC: 1.80
  Cxcl5 nFC: 3.49
  Cxcr2 log2 nFC: 1.19
  Cxcr2 nFC: 2.28
  Cyp2a5 log2 nFC: 1.66
  Cyp2a5 nFC: 3.15
  Cyp4b1 log2 nFC: 1.18
  Cyp4b1 nFC: 2.26
  Cytl1 log2 nFC: 1.67
  Cytl1 nFC: 3.18
  D630024D03Rik log2 nFC: 1.60
  D630024D03Rik nFC: 3.03
  Dpysl5 log2 nFC: 1.90
  Dpysl5 nFC: 3.73
  Ear1 log2 nFC: 1.11
  Ear1 nFC: 2.16
  Eml5 log2 nFC: 1.41
  Eml5 nFC: 2.65
  Esm1 log2 nFC: 1.28
  Esm1 nFC: 2.43
  Fabp12 log2 nFC: 1.43
  Fabp12 nFC: 2.69
  Faim2 log2 nFC: 2.03
  Faim2 nFC: 4.10
  Fam71f2 log2 nFC: 1.96
  Fam71f2 nFC: 3.88
  Fosb log2 nFC: 2.38
  Fosb nFC: 5.20
  Ggt1 log2 nFC: 1.91
  Ggt1 nFC: 3.77
  Gm867 log2 nFC: 2.18
  Gm867 nFC: 4.53
  Gm4956 log2 nFC: 1.08
  Gm4956 nFC: 2.12
  Gm9780 log2 nFC: 2.06
  Gm9780 nFC: 4.18
  Gm14964 log2 nFC: 1.87
  Gm14964 nFC: 3.65
  Gm20186 log2 nFC: 1.31
  Gm20186 nFC: 2.48
  Gm42722 log2 nFC: 1.79
  Gm42722 nFC: 3.46
  Gm49353 log2 nFC: 2.21
  Gm49353 nFC: 4.62
  Gnmt log2 nFC: 1.14
  Gnmt nFC: 2.20
  Gpat3 log2 nFC: 1.34
  Gpat3 nFC: 2.54
  Gria1 log2 nFC: 1.61
  Gria1 nFC: 3.05
  Gsta3 log2 nFC: 1.10
  Gsta3 nFC: 2.15
  Gzma log2 nFC: 1.70
  Gzma nFC: 3.26
  Hba-a1 log2 nFC: 1.21
  Hba-a1 nFC: 2.32
  Hba-a2 log2 nFC: 1.14
  Hba-a2 nFC: 2.21
  Hbb-bs log2 nFC: 1.10
  Hbb-bs nFC: 2.15
  Hbb-bt log2 nFC: 1.09
  Hbb-bt nFC: 2.13
  Hhatl log2 nFC: 2.05
  Hhatl nFC: 4.14
  Hpgd log2 nFC: 1.63
  Hpgd nFC: 3.10
  Igfbp3 log2 nFC: 1.75
  Igfbp3 nFC: 3.37
  Igfbp6 log2 nFC: 1.68
  Igfbp6 nFC: 3.21
  Inmt log2 nFC: 1.34
  Inmt nFC: 2.54
  Itga2b log2 nFC: 1.10
  Itga2b nFC: 2.15
  Kcne2 log2 nFC: 1.32
  Kcne2 nFC: 2.50
  Klf15 log2 nFC: 1.42
  Klf15 nFC: 2.67
  Klrc1 log2 nFC: 1.38
  Klrc1 nFC: 2.61
  Krt79 log2 nFC: 1.75
  Krt79 nFC: 3.36
  Ldb3 log2 nFC: 1.52
  Ldb3 nFC: 2.86
  Lrat log2 nFC: 1.15
  Lrat nFC: 2.22
  Mb log2 nFC: 2.27
  Mb nFC: 4.81
  Mir6979 log2 nFC: 1.18
  Mir6979 nFC: 2.26
  Mmp9 log2 nFC: 1.20
  Mmp9 nFC: 2.30
  Mpp3 log2 nFC: 1.65
  Mpp3 nFC: 3.14
  Ms4a4d log2 nFC: 1.15
  Ms4a4d nFC: 2.21
  Mybpc3 log2 nFC: 2.06
  Mybpc3 nFC: 4.18
  Mybphl log2 nFC: 2.33
  Mybphl nFC: 5.04
  Myh6 log2 nFC: 2.62
  Myh6 nFC: 6.14
  Myh7 log2 nFC: 2.22
  Myh7 nFC: 4.68
  Myl4 log2 nFC: 1.94
  Myl4 nFC: 3.85
  Myl7 log2 nFC: 1.90
  Myl7 nFC: 3.73
  Mylk3 log2 nFC: 2.03
  Mylk3 nFC: 4.08
  Myom2 log2 nFC: 1.87
  Myom2 nFC: 3.67
  Ngp log2 nFC: 2.72
  Ngp nFC: 6.57
  Nhlrc1 log2 nFC: 1.34
  Nhlrc1 nFC: 2.53
  Npr3 log2 nFC: 1.53
  Npr3 nFC: 2.88
  Nr4a3 log2 nFC: 1.63
  Nr4a3 nFC: 3.09
  Nrn1 log2 nFC: 1.84
  Nrn1 nFC: 3.59
  Numb log2 nFC: 1.49
  Numb nFC: 2.80
  Pdk4 log2 nFC: 1.64
  Pdk4 nFC: 3.11
  Phf24 log2 nFC: 1.57
  Phf24 nFC: 2.97
  Pln log2 nFC: 2.30
  Pln nFC: 4.92
  Pmvk log2 nFC: 1.09
  Pmvk nFC: 2.13
  Ppbp log2 nFC: 1.09
  Ppbp nFC: 2.13
  Ppp4r4 log2 nFC: 1.26
  Ppp4r4 nFC: 2.40
  Pram1 log2 nFC: 1.64
  Pram1 nFC: 3.12
  Prf1 log2 nFC: 1.34
  Prf1 nFC: 2.53
  Prmt8 log2 nFC: 1.27
  Prmt8 nFC: 2.41
  Pwwp3b log2 nFC: 1.22
  Pwwp3b nFC: 2.33
  Rab44 log2 nFC: 1.61
  Rab44 nFC: 3.05
  Rassf10 log2 nFC: 1.19
  Rassf10 nFC: 2.28
  Rbfox3 log2 nFC: 1.26
  Rbfox3 nFC: 2.40
  Rbm24 log2 nFC: 1.20
